Laboratory results published in US20020184551A1, “Process for the preparation of deactivated rice bran lipase” (COUNCIL OF SCIENTIFIC & INDUSTRIAL RESEARCH, priority 2001, published 2002).
Where two headings read alike, the source gives them in different places.

Key:
[1] = system: rice bran lipase; details: lipase 2 mg/ml, substrate 5% w/v, CaCl2 0.1 M
Method: To approximately 2 mg of rice bran lipase in 0.05 M sodium phosphate buffer, pH 7.4 is added different concentrations of ligands ranging from 1:10 to 1:1500 mole to mole ratio of protein to ligand and incubated for 1 h at30° C. in Innova™ 4000 incubator shaker at 150 rpm. The reaction mixture was checked for enzyme activity by pH-stat method using Mettler Toledo DL12 titrator using 5% solution of triacetin or tributyrin as substrate. Respective blank solutions where the enzyme was inactivated by the addition of distilled alcohol was also used. The activity was expressed in terms of control activity as microequivalents of alkali consumed per mg of protein per hour.
To approximately 2 mg of rice bran lipase in 0.05 m sodium phosphate buffer, pH 7.4 is added different concentrations of ligand ranging from 1:10 to 1:1500 on a mole to mole ratio and incubated fpr 1 hr at 30° C. in Innova™ 4000 incubator shaker at 150 rpm. The reaction mixture was checked for enzyme activity by pH start method using mettler Toledo DL 12 titrator using 5% solution of triacetin or tributyrin as substrate. Respective blank solutions where the enzyme was inactivated by the addition of distilled alcohol was also used. The activity was expressed in terms of control activity as micro equivalent of alkali consumed per mg of protein per hour.

[2] = system: rice bran lipase
Excerpt: The enzyme solution containing different concentrations of ligands was passed through a sephadex G25 column which was previously equilibrated with the elution buffer. The protein eluting immediately after the void volume was collected and assayed for the activity.
The enzyme was also checked for reversibility of its original activity after removal of ligands by gel filtrations on Sephadex G-25 column.

benzene boronic acid [ligand]
loss of initial activity of rice bran lipase ([1]; 1:10 mole to mole ratio of protein to ligand): 35% | loss of initial activity of rice bran lipase ([1]; 1:1500 mole/mole protein to ligand): ~77% | reversibility of enzyme activity after removal of ligand ([2]; 1:10 ratio, Sephadex G-25 column chromatography): able to recover the initial activity | reversibility of enzyme activity after removal of ligand ([2]; 1:1500 mole to mole ratio, gel filtration on Sephadex G-25 column): recovered almost its original activity
